Earlier results on one compound are cited in patent US8889725B2, “Sugar-based bait” (Bayer Cropscience AG, priority 2006, dated 2014).

This series has as its system Tapinoma sessile.

Regarding `CCOP(=S)(OCC)O/N=C(\C#N)c1ccccc1` [phoxim, O,O-diethylthionophosphoryl-α-oximinophenylacetonitrile], for the setting “baits with 0.05% by weight of phoxim in blackberry syrup or blackberry jam”, the “control of the ants” value is “complete control”. For the same compound, the “acceptance of the bait by ants” value (baits with 0.5% to 1% by weight of phoxim) is recorded as “repellent action”.
